The target of the assay is T1, Brd4 bromodomain 1 (BRD4(1)) (Homo sapiens, UniProt O60885).
T1 construct: made in house; host or cells: E. coli BL21(DE3)
Description: Inhibition of tetra-acetylated histone H4 binding to Brd4 bromodomain 1 (TR-FRET). The settings on record: tetra-acetylated histone H4 peptide, first bromodomain of Brd4. Here is the method:
Proteins were cloned and overexpressed with a N-terminal 6× His tag, then purified by nickel affinity followed by size exclusion chromatography. Briefly, E.coli BL21(DE3) cells were transformed with a recombinant expression vector encoding N-terminally Nickel affinity tagged bromodomains from Brd2, Brd3, Brd4. Cell cultures were incubated at 37° C. with shaking to the appropriate density and induced overnight with IPTG. The supernatant of lysed cells was loaded onto Ni-IDA column for purification. Eluted protein was pooled, concentrated and further purified by size exclusion chromatography. Fractions representing monomeric protein were pooled, concentrated, aliquoted, and frozen at −80° C. for use in subsequent experiments.
Binding of tetra-acetylated histone H4 and BET bromodomains was confirmed by a Time Resolved Fluorescence Resonance Energy Transfer (TR-FRET) method. N-terminally His-tagged bromodomains (200 nM) and biotinylated tetra-acetylated histone H4 peptide (25-50 nM, Millipore) were incubated in the presence of Europium Cryptate-labeled streptavidin (Cisbio Cat. #610SAKLB) and XL665-labeled monoclonal anti-His antibody (Cisbio Cat. #61HISXLB) in a white 96 well microtiter plate (Greiner). For inhibition assays, serially diluted test compound was added to these reactions in a 0.2% final concentration of DMSO. Final buffer concentrations were 30 mM HEPES pH 7.4, 30 mM NaCl, 0.3 mM CHAPS, 20 mM phosphate pH 7.0, 320 mM KF, 0.08% BSA). After a 2-h incubation at room temperature, the fluorescence by FRET was measured at 665 and 620 nm by a SynergyH4 plate reader (Biotek). The binding inhibitory activity was shown by a decrease in 665 nm fluorescence relative to 620 nm. IC50 values were determined from a dose response curve.
In general terms: In TR-FRET formats the signal depends on donor and acceptor labels being close together.
As usually defined, the IC50 is the concentration needed to halve the response being measured. Consider `Cc1noc(C)c1-c1cnc2[nH]c(=O)n(Cc3ccc(Cl)c(Cl)c3)c2c1` [compound 101, 1-(3,4-dichlorobenzyl)-6-(3,5-dimethylisoxazol-4-yl)-1H-imidazo[4,5-b]pyridin-2(3H)-one], for which the concentration for half-maximal inhibition (IC50) lay within 300 to 3000 nM. With `Cc1noc(C)c1-c1cc([N+](=O)[O-])c2nc(NCc3ccccc3)n(Cc3ccccc3)c2c1` [compound 147, N,1-dibenzyl-6-(3,5-dimethylisoxazol-4-yl)-4-nitro-1H-benzo[d]imidazol-2-amine] the figure was ≤ 300 nM; with `Cn1nccc1-c1ccc2c(c1)N(Cc1ccccc1)CC(=O)N2` [compound 166, 4-benzyl-6-(1-methyl-1H-pyrazol-5-yl)-3,4-dihydroquinoxalin-2(1H)-one], 300 to 3000 nM. Consider `Cn1nccc1-c1cnc2nc(N3CCOCC3)n(Cc3ccccc3)c2c1` [compound 175, 4-(1-benzyl-6-(1-methyl-1H-pyrazol-5-yl)-1H-imidazo[4,5-b]pyridin-2-yl)morpholine], for which the half-inhibitory concentration (IC50) lay within 300 to 3000 nM. The same measure for `Cc1nn(C)c(C)c1-c1cc(N)c2nc(C)n(Cc3ccccc3)c2c1` [compound 184, 1-benzyl-2-methyl-6-(1,3,5-trimethyl-1H-pyrazol-4-yl)-1H-benzo[d]imidazol-4-amine]: 3000 to 30000 nM; for `Cc1noc(C)c1-c1cc(Br)c2nc(C)n(CCCc3ccccc3)c2c1` [compound 187, 4-(4-bromo-2-methyl-1-(3-phenylpropyl)-1H-benzo[d]imidazol-6-yl)-3,5-dimethylisoxazole]: 300 to 3000 nM.

`Cc1noc(C)c1-c1cc(Br)c2c(c1)nc(C)n2CCCc1ccccc1` [compound 188, 4-(7-bromo-2-methyl-1-(3-phenylpropyl)-1H-benzo[d]imidazol-5-yl)-3,5-dimethylisoxazole]: the half-inhibitory concentration (IC50) was in the range of 3000 to 30000 nM. The same measure for `Cc1noc(C)c1-c1cc(Br)c2nc(C)n(CCOc3ccccc3)c2c1` [compound 189, 4-(4-bromo-2-methyl-1-(2-phenoxyethyl)-1H-benzo[d]imidazol-6-yl)-3,5-dimethylisoxazole]: 300 to 3000 nM; for `Cc1noc(C)c1-c1cc(Br)c2c(c1)nc(C)n2CCOc1ccccc1` [compound 190, 4-(7-bromo-2-methyl-1-(2-phenoxyethyl)-1H-benzo[d]imidazol-5-yl)-3,5-dimethylisoxazole]: 300 to 3000 nM; for `CC(=O)Nc1cc(-c2ccnn2C)cc2c1n(C)c(=O)n2Cc1ccccc1` [compound 204, N-(1-benzyl-3-methyl-6-(1-methyl-1H-pyrazol-5-yl)-2-oxo-2,3-dihydro-1H-benzo[d]imidazol-4-yl)acetamide]: 300 to 3000 nM. With `Cc1noc(C)c1-c1cnc2nc(NC3CCC(N)CC3)n(Cc3ccccc3)c2c1` (stereo not drawn) [compound 224, N1-(1-benzyl-6-(3,5-dimethylisoxazol-4-yl)-1H-imidazo[4,5-b]pyridin-2-yl)cyclohexane-1,4-diamine] the figure was ≤ 300 nM; with `Cc1noc(C)c1-c1cnc2nc(NCC3CCCCC3)n(Cc3ccccc3)c2c1` [compound 225, 1-benzyl-N-(cyclohexylmethyl)-6-(3,5-dimethylisoxazol-4-yl)-1H-imidazo[4,5-b]pyridin-2-amine], ≤ 300 nM; with `COCCCNc1nc2ncc(-c3c(C)noc3C)cc2n1Cc1ccccc1` [compound 226, 1-benzyl-6-(3,5-dimethylisoxazol-4-yl)-N-(3-methoxypropyl)-1H-imidazo[4,5-b]pyridin-2-amine], ≤ 300 nM. The same measure for `Cc1noc(C)c1-c1cnc2nc(NC3COC3)n(Cc3ccccc3)c2c1` [compound 227, 1-benzyl-6-(3,5-dimethylisoxazol-4-yl)-N-(oxetan-3-yl)-1H-imidazo[4,5-b]pyridin-2-amine]: ≤ 300 nM; for `Cc1noc(C)c1-c1cnc2[nH]c(=O)n(Cc3ccc(F)cc3)c2c1` [compound 228, 6-(3,5-dimethylisoxazol-4-yl)-1-(4-fluorobenzyl)-1H-imidazo[4,5-b]pyridin-2(3H)-one]: ≤ 300 nM. As for `Cc1noc(C)c1-c1cnc2nc(NCc3cnccn3)n(Cc3ccccc3)c2c1` [compound 229, 1-benzyl-6-(3,5-dimethylisoxazol-4-yl)-N-(pyrazin-2-ylmethyl)-1H-imidazo[4,5-b]pyridin-2-amine], the concentration for half-maximal inhibition (IC50) is ≤ 300 nM.

Consider `Cc1noc(C)c1-c1cnc2nc(NCC3CCOCC3)n(Cc3ccccc3)c2c1` [compound 230, 1-benzyl-6-(3,5-dimethylisoxazol-4-yl)-N-((tetrahydro-2H-pyran-4-yl)methyl)-1H-imidazo[4,5-b]pyridin-2-amine], for which the IC50 was ≤ 300 nM. The same measure for `Cc1noc(C)c1-c1cnc2nc(NCCN3CCN(C)CC3)n(Cc3ccccc3)c2c1` [compound 231, 1-benzyl-6-(3,5-dimethylisoxazol-4-yl)-N-(2-(4-methylpiperazin-1-yl)ethyl)-1H-imidazo[4,5-b]pyridin-2-amine]: ≤ 300 nM.

With `CNc1nc2ncc(-c3c(C)noc3C)cc2n1Cc1ccc(F)cc1` [compound 232, 6-(3,5-dimethylisoxazol-4-yl)-1-(4-fluorobenzyl)-N-methyl-1H-imidazo[4,5-b]pyridin-2-amine], the 50% inhibitory concentration (IC50) was ≤ 300 nM.

Take `CNc1nc2ncc(-c3c(C)noc3C)cc2n1Cc1ccc(Cl)cc1` [compound 233, 1-(4-chlorobenzyl)-6-(3,5-dimethylisoxazol-4-yl)-N-methyl-1H-imidazo[4,5-b]pyridin-2-amine]: the IC50 is ≤ 300 nM. With `Cc1noc(C)c1-c1cnc2nc(NC3CCCCC3)n(Cc3ccccc3)c2c1` [compound 234, 1-benzyl-N-cyclohexyl-6-(3,5-dimethylisoxazol-4-yl)-1H-imidazo[4,5-b]pyridin-2-amine] the figure was ≤ 300 nM; with `Cc1noc(C)c1-c1cnc2nc(NC3CCN(C)CC3)n(Cc3ccccc3)c2c1` [compound 235, 1-benzyl-6-(3,5-dimethylisoxazol-4-yl)-N-(1-methylpiperidin-4-yl)-1H-imidazo[4,5-b]pyridin-2-amine], ≤ 300 nM. The same measure for `Cc1noc(C)c1-c1cnc2nc(Oc3cccnc3)n(Cc3ccccc3)c2c1` [compound 236, 4-(1-benzyl-2-(pyridin-3-yloxy)-1H-imidazo[4,5-b]pyridin-6-yl)-3,5-dimethylisoxazole]: ≤ 300 nM; for `Cc1noc(C)c1-c1cnc2nc(NCC(C)(C)O)n(Cc3ccccc3)c2c1` [compound 237, 1-((1-benzyl-6-(3,5-dimethylisoxazol-4-yl)-1H-imidazo[4,5-b]pyridin-2-yl)amino)-2-methylpropan-2-ol]: ≤ 300 nM; for `Cc1noc(C)c1-c1cnc2nc(NCCN3CCCC3)n(Cc3ccccc3)c2c1` [compound 238, 1-benzyl-6-(3,5-dimethylisoxazol-4-yl)-N-(2-(pyrrolidin-1-yl)ethyl)-1H-imidazo[4,5-b]pyridin-2-amine]: ≤ 300 nM. With `Cc1noc(C)c1-c1cnc2nc(NCCN3CCCCC3)n(Cc3ccccc3)c2c1` [compound 239, 1-benzyl-6-(3,5-dimethylisoxazol-4-yl)-N-(2-(piperidin-1-yl)ethyl)-1H-imidazo[4,5-b]pyridin-2-amine] the figure was ≤ 300 nM; with `Cc1noc(C)c1-c1cc([N+](=O)[O-])c2[nH]c(=O)n([C@H](C)c3ccccc3)c2c1` [compound 240, (R)-6-(3,5-dimethylisoxazol-4-yl)-4-nitro-1-(1-phenylethyl)-1H-benzo[d]imidazol-2(3H)-one], ≤ 300 nM.

Values taken from US10363257B2 (ZENITH EPIGENETICS LTD., priority 2013, dated 2019).
